According to patent US20220071952A1, “METHODS OF TREATING AND PREVENTING HEPATOTOXICITY” (Natreon, Inc., priority 2020, published 2022):
“And” between values parts separate entries of the source, which are not always exact repeats. Equal values may be shown once.

Assays:
[1] = system: alcohol-induced hepatotoxicity in mice; assay: Alcohol (ethanol)-induced hepatotoxicity in mice, biochemical and physical parameters (Example III); format: in vivo, Swiss Albino mice; conditions: for Relative organ weight (w.r.t body weight) Kidney / Relative organ weight (w.r.t body weight) Liver / ACP / ALP / ALT(SGPT) / AST(SGOT) / Total Protein: 10 mg/kg p.o. + alcohol 5 g/kg p.o. twice daily, mean ± SD; for ACP / ALP / ALT(SGPT) / AST(SGOT) / Total Protein: plasma
Procedure: Swiss Albino male and female mice weighing approximately 30±5 g, 2 month old mice were obtained from National Research Institute of Ayurveda for Drug Development (Govt. of India), Kolkata, and were housed in polypropylene cages at 22±3° C., relative air humidity of 45 to 55%, with 12.00 hr light & dark cycle (lighting on from 6:00 AM to 6:00 PM). Mice were provided a standard pellet chow diet (carbohydrate 65.5%, protein 17.6%, fat 6.6%) and distilled water ad libitum. The mice were acclimatized for one week in the laboratory conditions, before being used in the experiment. All experiments were conducted between 10.00 hr and 14.00 hr. Principles of laboratory animals care (NIH publication no. 85-23, revised 1985) were followed.
In the present study simultaneous administration of alcohol (ethanol) and treatment with 3-OH-DBP and 3,8-(OH)2-DBP was done.
Vehicle control animals (“Con Veh”) were administered 0.3% CMC orally for 15 days.
Animals receiving ethanol (“Alc+0.3 CMC”, “3-OH-DBP+Alc”, “3,8-(OH)2-DBP+Alc”) were administered ethanol in 0.3% CMC orally as discussed above.
Results were expressed in terms of mean±SD (n=8). The data were subjected to one way ANOVA followed by Tukey's test using GraphPad Prism 4.0 software to establish statistical significance (*p<0.05, **p<0.01, ***p<0.001 vs. vehicle control; # p<0.05, ## p<0.01, ### p<0.001 vs. animals administered ethanol only).

[2] = system: CCl4-induced hepatotoxicity in mice; assay: Carbon tetrachloride (CCl4)-induced hepatotoxicity in mice, serum biochemical parameters (Example II); format: in vivo, Swiss albino mice; conditions: for ALT / AST / MDA / Total Bilirubin / Total Protein: 10 mg/kg p.o. 7 days + CCl4 (30%) 1 ml/kg i.p., serum, mean ± SD, n=6
Procedure: Swiss albino mice of both sexes, weighing approximately 25-30 g, were obtained from National Research Institute of Ayurveda for Drug Development (Govt. of India), Kolkata, and were housed in polypropylene cages at 22±3° C., relative air humidity of 45 to 55%, with 12.00 hr light and dark cycle (lighting on from 6:00 AM to 6:00 PM) and were provided standard pellet chow (carbohydrate 65.5%, protein 17.6%, fat 6.6%) and distilled water ad libitum. The mice were acclimatized for one week in the laboratory conditions before being used in the experiment. All experiments were conducted between 10.00 hr and 14.00 hr. Principles of laboratory animals care (NIH publication no. 85-23, revised 1985) were followed.

[3] = system: CCl4-induced hepatotoxicity in mice; assay: Synergistic hepatoprotective activity of DBPs against CCl4-induced hepatotoxicity (Example IV); conditions: for ACP / ALP / ALT / AST / Total Protein: CCl4 1 ml/kg, mean ± SEM, n=4
[4] = system: alcohol-induced hepatotoxicity in mice; assay: Synergistic hepatoprotective activity of DBPs against alcohol-induced hepatotoxicity (Example IV); conditions: for ACP / ALP / ALT / AST / Total Protein: alcohol 5 g/kg, mean ± SEM, n=4
Procedure: Hepatotoxicity was induced by oral administration of alcohol (ethanol: 5 g/kg) from stock 400 mg/ml twice daily for 15 days.
3-OH-DBP and 3,8-(OH)2-DBP were each separately suspended in 0.3% CMC and administered at a dose of 10 mg/kg body weight per orally for 15 days. During the 15 days treatment, body weight, food intake, and water intake were monitored at regular intervals. Following 15 days of treatment physical parameters (relative organ weight) and biochemical parameters (plasma total protein content, ALT, AST, ALP, and ACP) were studied.
3-OH-DBP (2 mg/kg body weight, 10 mg/kg body weight);
3,8-(OH)2-DBP (10 mg/kg body weight, 50 mg/kg body weight); and

[5] = female mice (Table 14), 10 mg/kg p.o.
[6] = male mice (Table 13), 10 mg/kg p.o.
[7] = female mice, doses 3-OH-DBP 2, 3,8-(OH)2-DBP 10, 1:5 combination 12 mg/kg b.w.
[8] = female mice, doses 3-OH-DBP 10, 3,8-(OH)2-DBP 50, 1:5 combination 60 mg/kg b.w.
[9] = male mice, doses 3-OH-DBP 2, 3,8-(OH)2-DBP 10, 1:5 combination 12 mg/kg b.w.
[10] = male mice, doses 3-OH-DBP 10, 3,8-(OH)2-DBP 50, 1:5 combination 60 mg/kg b.w.
[11] = female mice, doses 3-OH-DBP 2, 3,8-(OH)2-DBP 10, combination 12 mg/kg b.w.
[12] = female mice, doses 3-OH-DBP 10, combination 60 mg/kg b.w.

O=c1oc2cc(O)ccc2c2ccccc12 [3-OH-DBP, 3-hydroxy-dibenzo-alpha-pyrone]
hepatoprotective activity against alcohol-induced hepatotoxicity ([1]; 10 mg/kg p.o., 15 days): significant hepatoprotective activity
effect on alcohol-induced increased plasma ACP [1, 5]: significantly (p<0.05) attenuated
effect on alcohol-induced increased plasma ALT [1, 5]: significantly (p<0.001) attenuated
effect on alcohol-induced increased plasma AST [1, 5]: significantly (p<0.05; p<0.01) attenuated
effect on plasma ALP level compared with ALC group [1, 5]: significantly (p<0.05) decreased
Relative organ weight (w.r.t body weight) Kidney ([1]; female mice, 15 days): 0.013 ± 0.001^
Relative organ weight (w.r.t body weight) Liver ([1]; female mice, 15 days): 0.052 ± 0.011^
ACP ([1]; female mice, 15 days): 5.58 ± 2.19^# IU/L
ALP ([1]; female mice, 15 days): 32.95 ± 13.06^# IU/L
ALT(SGPT) ([1]; female mice, 15 days): 6.72 ± 2.88^## IU/L
AST(SGOT) ([1]; female mice, 15 days): 6.19 ± 1.94^# IU/L
Total Protein ([1]; female mice, 15 days): 2.75 ± 0.167 g/dL
effect on alcohol-induced increased plasma ACP [1, 6]: significantly (p<0.05) attenuated
effect on alcohol-induced increased plasma ALT [1, 6]: significantly (p<0.05) attenuated
effect on alcohol-induced increased plasma AST [1, 6]: significantly (p<0.05) attenuated
Relative organ weight (w.r.t body weight) Kidney ([1]; male mice, 15 days): 0.014 ± 0.001
Relative organ weight (w.r.t body weight) Liver ([1]; male mice, 15 days): 0.044 ± 0.001
ACP ([1]; male mice, 15 days): 5.36 ± 2.34^# IU/L
ALP ([1]; male mice, 15 days): 20.20 ± 6.18^# IU/L
ALT(SGPT) ([1]; male mice, 15 days): 11.93 ± 4.364^# IU/L
AST(SGOT) ([1]; male mice, 15 days): 5.83 ± 1.75^# IU/L
Total Protein ([1]; male mice, 15 days): 2.75 ± 0.167 g/dL
effect on CCl4-induced hepatotoxicity (ALT, AST, bilirubin, total protein vs CCl4 group) ([2]; 10 mg/kg p.o., mice): significantly attenuated and reversed the CCl4-induced hepatotoxicity
effect on CCl4-induced lipid peroxidation (MDA) ([2]; 10 mg/kg p.o., mice): significantly lowered CCl4-induced lipid peroxidation
ALT ([2]; female mice): 67.34 ± 12.07 IU/L
AST ([2]; female mice): 17.48 ± 5.67 IU/L
MDA ([2]; female mice): 8.13 ± 0.167 nmol/mL
Total Bilirubin ([2]; female mice): 0.53 ± 0.21 mg/dL
Total Protein ([2]; female mice): 3.92 ± 0.88 g/dL
ALT ([2]; male mice): 58.21 ± 6.79 IU/L
AST ([2]; male mice): 12.33 ± 3.29 IU/L
Total Bilirubin ([2]; male mice): 0.50 ± 0.23 mg/dL
Total Protein ([2]; male mice): 0.00355 ± 0.00031 g/dL
MDA ([2]; male mice, 10 mg/kg): 7.04 nmol/mL and 7.04 ± 0.09 nmol/mL
hepatoprotective activity against carbon tetrachloride-induced liver damage ([2]; males and females, 10 mg/kg p.o.): significant hepatoprotective activity
hepatoprotective activity (conclusion, Tables 19 and 20) ([3]; CCl4-induced hepatotoxicity, male and female mice): hepatoprotective activity in a dose dependent manner
ACP [3, 7]: 48 ± 5.6 (b) U/L
ALP [3, 7]: 75 ± 13 (b) IU/L
ALT [3, 7]: 81 ± 7 (b) IU/L
AST [3, 7]: 90 ± 4.2 (b) IU/L
Total Protein [3, 7]: 4.7 ± 0.59 g/dL
ACP [3, 8]: 55 ± 4.1 (e) U/L
ALP [3, 8]: 78 ± 6.9 (e) IU/L
ALT [3, 8]: 75 ± 7.6*(e) IU/L
AST [3, 8]: 69 ± 4.9 (e) IU/L
Total Protein [3, 8]: 7.2 ± 0.23 g/dL
ACP, difference in values from CCl4 treated mice [3, 7]: A = (a-b = 32) U/L
ALP, difference in values from CCl4 treated mice [3, 7]: A = (a-b = 15) IU/L
ALT, difference in values from CCl4 treated mice [3, 7]: A = (a-b = 6) IU/L
AST, difference in values from CCl4 treated mice [3, 7]: A = (a-b = 15) IU/L
ACP, difference in values from CCl4 treated mice [3, 8]: D = (a-e = 26) U/L
ALP, difference in values from CCl4 treated mice [3, 8]: D = (a-e = 12) IU/L
ALT, difference in values from CCl4 treated mice [3, 8]: D = (a-e = 12) IU/L
AST, difference in values from CCl4 treated mice [3, 8]: D = (a-e = 36) IU/L
ACP [3, 9]: 49 ± 3.6***,#( b) U/L
ALP [3, 9]: 79 ± 12#(b) IU/L
ALT [3, 9]: 72 ± 3.4**(b) IU/L
AST [3, 9]: 70 ± 4##(b) IU/L
Total Protein [3, 9]: 5.6 ± 0.37 g/dL
ACP [3, 10]: 47 ± 2.6 (e) U/L
ALP [3, 10]: 78 ± 6.9#(e) IU/L
ALT [3, 10]: 67 ± 3.6 (e) IU/L
AST [3, 10]: 69 ± 2.7 (e) IU/L
Total Protein [3, 10]: 6.3 ± 0.46 g/dL
ACP, difference in values from CCl4 treated mice [3, 9]: A = (a-b = 37) U/L
ALP, difference in values from CCl4 treated mice [3, 9]: A = (a-b = 63) IU/L
ALT, difference in values from CCl4 treated mice [3, 9]: A = (a-b = 8) IU/L
AST, difference in values from CCl4 treated mice [3, 9]: A = (a-b = 33) IU/L
ACP, difference in values from CCl4 treated mice [3, 10]: D = (a-e = 39) U/L
ALP, difference in values from CCl4 treated mice [3, 10]: D = (a-e = 64) IU/L
ALT, difference in values from CCl4 treated mice [3, 10]: D = (a-e = 13) IU/L
AST, difference in values from CCl4 treated mice [3, 10]: D = (a-e = 34) IU/L
hepatoprotective activity (conclusion, Tables 17 and 18) ([4]; alcohol-induced hepatotoxicity, male and female mice): hepatoprotective activity in a dose dependent manner
ACP [4, 11]: 19.3 ± 1 (b) U/L
ALP [4, 11]: 106.6 ± 8 (b) ^ IU/L
ALT [4, 11]: 85.31 ± 7.89 (b) IU/L
AST [4, 11]: 54.81 ± 8.13 (b)^ IU/L
Total Protein [4, 11]: 7.21 ± 0.36 g/dL
ACP [4, 12]: 12.1±***,^# (e) U/L
ALP [4, 12]: 79 ± 11 (e) IU/L
ALT [4, 12]: 57.15 ± 3.46 (e) IU/L
AST [4, 12]: 41.11 ± 6.98 (e)^ IU/L
Total Protein [4, 12]: 6.53 ± 0.32 g/dL
ACP, difference in values from alcohol treated mice [4, 11]: A = (a-b = 1.97) U/L
ALP, difference in values from alcohol treated mice [4, 11]: A = (a-b = 33.4) IU/L
ALT, difference in values from alcohol treated mice [4, 11]: A = (a-b = 3.53) IU/L
AST, difference in values from alcohol treated mice [4, 11]: A = (a-b = 14.14) IU/L
ACP, difference in values from alcohol treated mice [4, 12]: D = (a-e = 8.9) U/L
ALP, difference in values from alcohol treated mice [4, 12]: D = (a-e = 61) IU/L
ALT, difference in values from alcohol treated mice [4, 12]: D = (a-e = 31.69) IU/L
AST, difference in values from alcohol treated mice [4, 12]: D = (a-e = 27.84) IU/L
ACP [4, 9]: 13.3 ± 1.03 (b) U/L
ALP [4, 9]: 90.2 ± 6.68 (b) IU/L
ALT [4, 9]: 74.9 ± 1.66 (b) IU/L
AST [4, 9]: 46.5 ± 3.19 (b) IU/L
Total Protein [4, 9]: 6.68 ± 0.43 g/dL
ACP [4, 10]: 11.6 ± 0.89 (e) U/L
ALP [4, 10]: 83.4 ± 4.87 (e) IU/L
ALT [4, 10]: 65.4 ± 2.59(e) IU/L
AST [4, 10]: 39.9 ± 5.30 (e) IU/L
Total Protein [4, 10]: 8.24 ± 0.43 g/dL
ACP, difference in values from alcohol treated mice [4, 9]: A = (a-b = 5.3) U/L
ALP, difference in values from alcohol treated mice [4, 9]: A = (a-b = 43.8) IU/L
ALT, difference in values from alcohol treated mice [4, 9]: A = (a-b = 31.1) IU/L
AST, difference in values from alcohol treated mice [4, 9]: A = (a-b = 13.5) IU/L
ACP, difference in values from alcohol treated mice [4, 10]: D = (a-e = 7) U/L
ALP, difference in values from alcohol treated mice [4, 10]: D = (a-e = 50.6) IU/L
ALT, difference in values from alcohol treated mice [4, 10]: D = (a-e = 40.6) IU/L
AST, difference in values from alcohol treated mice [4, 10]: D = (a-e = 20.8) IU/L
